According to patent publication US7550599B2, “Water compatible sterically hindered alkoxyamines and hydroxy substituted alkoxyamines” (Ciba Specialty Chemicals Corporation, priority 2003, dated 2009):

How the values were obtained:
[1] = Ink jet media light fastness, cyan, Example 31; conditions: 100% print density; office fluorescent lighting; 650-700 mg/m2
Method: (§1) A resin-coated paper impregnated with inorganic adsorbent particles (Konica QP Photoglossy ink jet paper, Konica Corp.) is purchased. On the ink-receiving layer, a 0.8 wt % methanol solution of the instant compounds is applied in an amount to achieve 650-700 mg/m^2, unless otherwise stated. The paper is allowed to dry under ambient temperature and pressure for 24 hours. Separately, test patterns (cyan) are printed on the treated sheets using a Hewlett Packard DeskJet 970 Cxi printer at 100% print density. The obtained prints are left to dry at ambient temperature and pressure for 24 hours. Color densities and CIEL*a*b coordinates before and after exposure are measured using X-Rite 938 Spectrodensitometer. Exposures are carried out using normal office fluorescent lighting.

[2] = Ink jet media light fastness, magenta, Example 32; conditions: 100% print density, office fluorescent lighting
Method: as §1, with “(magenta)” for “(cyan)”

[3] = Ink jet media light fastness, cyan, Example 34; conditions: 50% print density, office fluorescent lighting
Method: as §1, with “50%” for “100%”

[4] = Ink jet media light fastness, magenta, Example 35; conditions: 50% print density, office fluorescent lighting
Method: as §1, with “(magenta)” for “(cyan)”, “50%” for “100%”

[5] = Dye fading of shampoo under fluorescent light, Example 49; conditions: Clairol Herbal Essences shampoo; fluorescent light aging; loading 0.30 wt %
Method: (§2) The instant compounds are added to a commercial shampoo formulation and are evaluated for their ability to reduce the amount of dye fading when the samples are exposed to fluorescent lighting. The instant compounds (0.36 g) are dissolved in 5 mL of methanol which is then added to 120 g of shampoo (Clairol^R Herbal Essences Shampoo) with agitation. A benzotriazole UV absorber, 2-(2-hydroxy-3-tert-butyl-5-methylphenyl)-2H-benzotriazole-5-sulfonic acid, sodium salt (UVA), is optionally added to the shampoo formulation. The stabilized shampoo formulation is agitated for 15 minutes and put into 20 mL glass scintillation vials. These formulations are weathered under fluorescent light aging at ambient temperature. The CIEL*a*b coordinates before and after exposure are measured using X-Rite 938 Spectrodensitometer. Color change is expressed as Delta E (DE).

[6] = Dye fading of mouthwash under fluorescent light, Example 50; conditions: Scope Original Mint mouthwash; fluorescent light aging; loading 0.30 wt %
Method: as §2, with “mouthwash” for “shampoo”, “mouthwash (Scope^R Original Mint)” for “shampoo (Clairol^R Herbal Essences Shampoo)”

## CC(C)(O)CON1C(C)(C)CC(N)CC1(C)C [Example 7]
[1]
  DE for cyan after 4 weeks: 4.27
[2]; 650-700 mg/m2
  DE for magenta after 4 weeks: 20.78
[2]; (2x) 1300 to 1400 mg/m2
  DE for magenta after 4 weeks: 19.52
[2]; (3x) 1950 to 2100 mg/m2
  DE for magenta after 4 weeks: 12.99
[3]; 650-700 mg/m2
  DE for cyan after 4 weeks: 5.85
[3]; (2x) 1300 to 1400 mg/m2
  DE for cyan after 4 weeks: 4.95
[3]; (3x) 1950 to 2100 mg/m2
  DE for cyan after 4 weeks: 4.34
[4]; 650-700 mg/m2
  DE for magenta after 4 weeks: 16.62
[4]; (2x) 1300 to 1400 mg/m2
  DE for magenta after 4 weeks: 14.14
[4]; (3x) 1950 to 2100 mg/m2
  DE for magenta after 4 weeks: 8.60
[5]
  DE after 2 weeks: 3.96

## CC(C)(O)CON1C(C)(C)CC(OC(=O)C(C)(C)O)CC1(C)C [Example 18]
[6]
  DE after 2 weeks: 5.11
